In patent publication US12624034B2, “Non-covalent modifiers of AKT1 and uses thereof” (Terremoto Biosciences, Inc., priority 2023, dated 2026):
Like-named read-outs stand apart in the source and are kept apart here.

Tests used:
[1] = molecular target: T1, AKT1 WT (Homo sapiens, UniProt P31749); assay: Live cell AKT1 WT target engagement by NanoBRET competitive probe displacement in HEK293 cells; type: binding; details: 2 h at 37° C., read-out: AKT1 WT IC50
T1 construct: expressed in transfected cells; host or cells: HEK293

[2] = molecular target: T2, AKT2 (Homo sapiens, UniProt P31751); assay: Live cell AKT2 target engagement by NanoBRET competitive probe displacement in HEK293 cells; type: binding; details: 2 h at 37° C., read-out: AKT2 IC50
T2 construct: expressed in transfected cells; host or cells: HEK293

[3] = NanoBRET competitive probe displacement, live HEK293 cells
[4] = NanoBRET live cell target engagement, HEK293 cells

T2 sequence (P31751 whole entry): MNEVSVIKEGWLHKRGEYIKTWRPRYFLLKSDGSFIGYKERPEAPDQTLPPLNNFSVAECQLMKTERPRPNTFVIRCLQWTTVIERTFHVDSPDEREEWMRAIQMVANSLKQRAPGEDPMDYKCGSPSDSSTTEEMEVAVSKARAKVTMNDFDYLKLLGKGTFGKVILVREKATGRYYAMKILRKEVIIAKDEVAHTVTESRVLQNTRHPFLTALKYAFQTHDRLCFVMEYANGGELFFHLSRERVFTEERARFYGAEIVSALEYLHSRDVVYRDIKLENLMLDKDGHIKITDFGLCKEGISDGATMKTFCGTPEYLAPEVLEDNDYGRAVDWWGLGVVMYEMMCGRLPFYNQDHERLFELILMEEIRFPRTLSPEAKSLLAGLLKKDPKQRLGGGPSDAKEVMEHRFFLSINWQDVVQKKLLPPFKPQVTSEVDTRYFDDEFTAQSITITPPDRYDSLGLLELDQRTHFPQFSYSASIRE
T1 sequence (P31749 whole entry): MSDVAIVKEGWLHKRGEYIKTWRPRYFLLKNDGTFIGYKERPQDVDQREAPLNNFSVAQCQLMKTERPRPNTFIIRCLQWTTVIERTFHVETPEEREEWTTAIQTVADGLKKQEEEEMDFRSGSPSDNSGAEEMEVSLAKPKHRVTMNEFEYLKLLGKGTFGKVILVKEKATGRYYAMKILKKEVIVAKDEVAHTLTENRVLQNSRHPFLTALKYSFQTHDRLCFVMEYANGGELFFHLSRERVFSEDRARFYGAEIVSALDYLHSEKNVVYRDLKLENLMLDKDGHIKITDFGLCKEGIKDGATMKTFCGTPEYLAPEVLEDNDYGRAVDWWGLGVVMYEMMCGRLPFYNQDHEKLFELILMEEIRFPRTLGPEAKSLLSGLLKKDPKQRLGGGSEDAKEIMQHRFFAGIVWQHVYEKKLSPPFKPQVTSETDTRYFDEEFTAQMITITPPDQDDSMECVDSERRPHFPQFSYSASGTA

| Compound | IC50 [1, 3] [nM] | IC50 [2, 3] [nM] | IC50 [1, 4] [nM] | IC50 [2, 4] [nM] |
| --- | --- | --- | --- | --- |
| Cc1ncccc1CN[C@H]1CCc2cc(-n3c(-c4cccnc4N)nc4ccc(-n5cccn5)nc43)ccc21 [Compound 140] | – | – | 31.5 | 576 |
| Cc1nncn1[C@H]1CCc2cc(-n3c(-c4cccnc4N)nc4ccc(-n5cccn5)nc43)ccc21 [Compound 217, (S)-3-(3-(1-(3-methyl-4H-1,2,4-triazol-4-yl)-2,3-dihydro-1H-inden-5-yl)-5-(1H-pyrazol-1-yl)-3H-imidazo[4,5-b]pyridin-2-yl)pyridin-2-amine] | – | – | 38.9 | 328 |
| Nc1ncccc1-c1nc2ccc(-n3cccn3)nc2n1-c1ccc2c(c1)CC[C@@H]2n1ccnn1 [Compound 188] | – | – | 20 | 650 |
| Cc1coc(-c2ccc3nc(-c4cccnc4N)n(-c4ccc5c(c4)CC[C@@H]5NC(=O)c4nccnc4C)c3n2)n1 [Compound 244] | – | – | 221 | > 10000 |
| Cc1cnc(-c2ccc3nc(-c4cccnc4N)n(-c4ccc5c(c4)CC[C@@H]5NC(=O)c4nccnc4C)c3n2)s1 [Compound 243, (S)—N-(5-(2-(2-aminopyridin-3-yl)-5-(5-methylthiazol-2-yl)-3H-imidazo[4,5-b]pyridin-3-yl)-2,3-dihydro-1H-inden-1-yl)-3-methylpyrazine-2-carboxamide] | – | – | 75 | 8230 |
| Nc1ncccc1-c1nc2ccc(-n3cccn3)nc2n1-c1ccc2c(c1)CC[C@@H]2NC(=O)c1ccc(OC(F)(F)F)nc1 [Compound 68] | – | – | 5.29 | 15.2 |
| Nc1ncccc1-c1nc2ccc(-n3cccn3)nc2n1-c1ccc2c(c1)CC[C@@H]2n1ccnc1 [Compound 273, (S)-3-(3-(1-(1H-imidazol-1-yl)-2,3-dihydro-1H-inden-5-yl)-5-(1H-pyrazol-1-yl)-3H-imidazo[4,5-b]pyridin-2-yl)pyridin-2-amine] | – | – | 11.6 | 165 |
| Nc1ncccc1-c1nc2ccc(-n3cccn3)nc2n1-c1ccc2c(c1)CC[C@@H]2NC(=O)c1cncc(OC(F)(F)F)c1 [Compound 138] | – | – | 13.5 | 284 |
| Nc1ncccc1-c1nc2ccc(-c3ncco3)nc2n1-c1ccc2c(c1)CC[C@@H]2n1ccnn1 [Compound 246] | – | – | 65.5 | 2370 |
| C#Cc1ncccc1C(=O)N[C@H]1CCc2cc(-n3c(-c4cccnc4N)nc4ccc(-n5cccn5)nc43)ccc21 [Compound 113] | – | – | 21 | 537 |
| Nc1ncccc1-c1nc2ccc(-n3cccn3)nc2n1-c1ccc2c(c1)CC[C@@H]2NC(=O)c1cccnc1-n1cccn1 [Compound 90] | – | – | 228 | 5850 |
| CN(C)Cc1ncccc1C(=O)N[C@H]1CCc2cc(-n3c(-c4cccnc4N)nc4ccc(-n5cccn5)nc43)ccc21 [Compound 104] | – | – | 317 | > 10000 |
| CS(=O)(=O)Nc1ccc(C(=O)N[C@H]2CCc3cc(-n4c(-c5cccnc5N)nc5ccc(-n6cccn6)nc54)ccc32)cn1 [Compound 231] | – | – | 504 | 3870 |
| Nc1ncccc1-c1nc2ccc(-n3cccn3)nc2n1-c1ccc2c(c1)CC[C@@H]2NC(=O)c1cnc2c(c1)CCC2 [Compound 94] | – | – | 7.33 | 18.8 |
| Nc1ncccc1-c1nc2ccc(-n3cccn3)nc2n1-c1ccc2c(c1)CC[C@@H]2NC(=O)c1ccnc(C#Cc2ccccc2)c1 [Compound 209] | – | – | 37.7 | 316 |
| Cc1cc(C(=O)N[C@H]2CCc3cc(-n4c(-c5cccnc5N)nc5ccc(-n6cccn6)nc54)ccc32)cnc1C [Compound 115] | – | – | 5.16 | 31.7 |

Other lines, results leading:

| IC50 [1, 3] [nM] | IC50 [2, 3] [nM] | IC50 [1, 4] [nM] | IC50 [2, 4] [nM] | Compound |
| --- | --- | --- | --- | --- |
| 80.7 | 1570 | – | – | CN(CC1CC1)[C@H]1CCc2cc(-n3c(-c4cccnc4N)nc4ccc(-n5cccn5)nc43)ccc21 [Compound 437] |
| 31.6 | 973 | – | – | Nc1ncccc1-c1nc2ccc(-n3ccc(OC4CCOCC4)n3)nc2n1-c1ccc2c(c1)CC[C@@H]2NC1CCN(C(=O)C2CC2)CC1 [Compound 517] |
| – | – | 120 | 4290 | Nc1ncccc1-c1nc2ccc(-n3cccn3)nc2n1-c1ccc2c(c1)CCC2n1cccn1 (stereo not drawn) [Compound 325, 3-(3-(1-(1H-pyrazol-1-yl)-2,3-dihydro-1H-inden-5-yl)-5-(1H-pyrazol-1-yl)-3H-imidazo[4,5-b]pyridin-2-yl)pyridin-2-amine] |
| 38.9 | 3140 | – | – | Nc1ncccc1-c1nc2ccc(-n3ccc(C4CC4)n3)nc2n1-c1ccc2c(c1)CC(F)[C@@H]2NC1CCN(C(=O)C2CC2)CC1 (stereo partly drawn) [Compound 480] |
| 130 | 2780 | – | – | Nc1ncccc1-c1nc2ccc(-n3cccn3)nc2n1-c1ccc2c(c1)CC[C@@H]2NC1CCN(C(=O)C(F)F)CC1 [Compound 475] |
| 5.64 | 57 | – | – | COc1cc(C(=O)N[C@H]2CCc3cc(-n4c(-c5cccnc5N)nc5ccc(-n6cccn6)nc54)ccc32)sn1 [Compound 429] |
| – | – | 163 | 4220 | Nc1ncccc1-c1nc2ccc(-n3cccn3)nc2n1-c1ccc2c(c1)CC[C@@H]2NC(=O)c1ccc(O)nc1 [Compound 297] |
| 2.28 | 84.4 | – | – | COC1CCN(c2ccn(-c3ccc4nc(-c5cccnc5N)n(-c5ccc6c(c5)CC[C@@H]6NC5CCN(C(=O)C6CC6)CC5)c4n3)n2)CC1 [Compound 564] |
| 28.4 | 3850 | – | – | COc1ccn(-c2ccc3nc(-c4cccnc4N)n(-c4ccc5c(c4)CC[C@@H]5NC4CN(C(=O)C5CC5)C4)c3n2)n1 [Compound 484] |
| 33.7 | 2820 | – | – | C#Cc1ccc2nc(-c3cccnc3N)n(-c3ccc4c(c3)CC[C@@H]4NC(=O)c3ccc(C(F)F)nc3)c2n1 [Compound 404] |
| 26.6 | 782 | – | – | Nc1ncccc1-c1nc2ccc(C#CC3CC3)nc2n1-c1ccc2c(c1)CC[C@@H]2NC(=O)c1ccc(F)c(F)c1 [Compound 459] |
| – | – | 55.1 | 1190 | Nc1ncccc1-c1nc2ccc(-n3cccn3)nc2n1-c1ccc2c(c1)CC[C@@H]2N1CCCC1 [Compound 330] |
| 27.6 | 2690 | – | – | COc1cnn(-c2ccc3nc(-c4cccnc4N)n(-c4ccc5c(c4)CC[C@@H]5NC(=O)c4cnc(C(F)F)s4)c3n2)n1 [Compound 594] |
| 9.77 | 430 | – | – | Nc1ncccc1-c1nc2ccc(-n3ccc(N4CCC4)n3)nc2n1-c1ccc2c(c1)CC[C@@H]2NC1CCN(C(=O)C2CC2)CC1 [Compound 562] |
| 25.1 | 2910 | – | – | Nc1ncccc1-c1nc2ccc(-n3nccn3)nc2n1-c1ccc2c(c1)CC[C@@H]2NC(=O)c1cnc(C(F)F)o1 [Compound 538] |
| – | – | 19.1 | 191 | Nc1ccc(C(=O)N[C@H]2CCc3cc(-n4c(-c5cccnc5N)nc5ccc(-n6cccn6)nc54)ccc32)cn1 [Compound 311] |
| – | – | 19.1 | 41.3 | Nc1ncccc1-c1nc2ccc(-n3cccn3)nc2n1-c1ccc2c(c1)CC[C@@H]2NC(=O)c1cc(F)cc(F)c1 [Compound 331] |
| 116 | 1010 | – | – | C#Cc1cc(-n2nccn2)nc2c1nc(-c1cccnc1N)n2-c1ccc2c(c1)CC[C@@H]2NC(=O)c1ccc(C)nc1 [Compound 587] |
| 6.24 | 130 | – | – | Nc1ncccc1-c1nc2ccc(-n3ccc(N4CCOCC4)n3)nc2n1-c1ccc2c(c1)CC(F)[C@@H]2NC1CCN(C(=O)C2CC2)CC1 (stereo partly drawn) [Compound 544] |
| – | – | 56.2 | 660 | Nc1ncccc1-c1nc2ccc(-n3cccn3)nc2n1-c1ccc2c(c1)CC[C@@H]2NC(=O)c1cnc(O)c(F)c1 [Compound 296] |
